In patent US20240269139A1, “COMPOUNDS FOR TARGETED PROTEIN DEGRADATION OF KINASES” (DANA-FARBER CANCER INSTITUTE, INC., priority 2020, published 2024):
Like-named read-outs stand apart in the source and are kept apart here.

Tests used:
Format in all cases: cell-based
[1] = target: protein kinases (human kinome) (Homo sapiens, UniProt P51451); conditions: for logFC of BLK: BLK P51451; for logFC of BLK (P51451): down; for logFC BLK: BLK (P51451), direction down
[2] = tested on: protein kinases (human kinome); conditions: for logFC ABL1: ABL1 (P00519-2); for logFC of SRC: Accession P12931-2; for logFC LCK: accession P06239-3; for logFC MAPK8: MAPK8 P45983-4; for logFC RPS6KA1: RPS6KA1 (Q15418-2)
[3] = target: protein kinases (human kinome) (Homo sapiens, UniProt Q00534)
Chain of protein kinases (human kinome) (Homo sapiens, UniProt Q00534) (Q00534 whole entry): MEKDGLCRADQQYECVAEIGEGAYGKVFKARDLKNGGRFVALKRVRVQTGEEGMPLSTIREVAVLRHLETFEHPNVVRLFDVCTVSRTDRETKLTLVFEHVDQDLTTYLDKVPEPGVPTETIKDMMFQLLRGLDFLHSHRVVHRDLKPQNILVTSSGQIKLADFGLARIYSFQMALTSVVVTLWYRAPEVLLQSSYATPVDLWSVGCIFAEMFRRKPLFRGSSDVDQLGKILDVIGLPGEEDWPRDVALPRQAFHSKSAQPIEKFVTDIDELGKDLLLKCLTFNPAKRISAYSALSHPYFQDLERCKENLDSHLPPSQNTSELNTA

[4] = experiment wp071, direction of change down
[5] = SRC (P12931-2) protein abundance, degrader vs DMSO, down
[6] = AURKB Q96GD4-5, experiment wp146
[7] = Accession P49841-2, experiment wp146, direction down
[8] = CDK9 (P50750-2) protein abundance, degrader vs DMSO, down
[9] = CLK1 P49759-3, experiment wp146
[10] = Experiment wp146, direction down
[11] = GSK3B P49841-2, experiment wp146
[12] = experiment wp056, direction of change down
[13] = experiment wp103, direction of change down
[14] = experiment wp107, direction of change down

Chain of protein kinases (human kinome) (Homo sapiens, UniProt P51451) (P51451 whole entry): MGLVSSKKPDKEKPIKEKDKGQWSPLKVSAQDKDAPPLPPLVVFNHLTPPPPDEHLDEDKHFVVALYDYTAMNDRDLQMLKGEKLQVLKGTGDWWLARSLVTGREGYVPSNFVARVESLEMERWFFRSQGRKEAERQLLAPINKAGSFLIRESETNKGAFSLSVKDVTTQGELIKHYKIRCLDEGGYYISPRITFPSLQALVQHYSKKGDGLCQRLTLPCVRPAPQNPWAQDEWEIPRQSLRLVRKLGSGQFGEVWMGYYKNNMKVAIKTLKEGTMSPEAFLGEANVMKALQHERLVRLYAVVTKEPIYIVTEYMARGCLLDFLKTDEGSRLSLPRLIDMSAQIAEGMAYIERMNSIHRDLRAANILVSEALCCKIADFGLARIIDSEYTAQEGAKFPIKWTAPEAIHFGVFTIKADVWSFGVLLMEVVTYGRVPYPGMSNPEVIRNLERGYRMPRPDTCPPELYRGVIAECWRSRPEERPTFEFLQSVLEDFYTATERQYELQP

Nc1ncnc2c1c(-c1ccc(Oc3ccccc3)cc1)nn2[C@H]1CC[C@H](N2CCN(CCOCCNC(=O)CNc3cccc4c3C(=O)N(C3CCC(=O)NC3=O)C4=O)CC2)CC1 (some centres unmarked) [SB1.G.181]
logFC of BLK ([1]; experiment wp071): −2.337
logFC of BLK (P51451) ([1]; Experiment wp071): −2.337
logFC ABL1 ([2]; experiment wp071): −1.735
logFC FYN ([2]; Accession P06241-2, experiment wp071): −2.276
logFC of SRC ([2]; experiment wp071): −2.478
logFC FYN ([2]; FYN P06241-2, experiment wp071): −2.276
logFC LCK [2, 4]: −1.774
logFC [2, 5]: −2.478
logFC ABL1 (P00519-2) ([2]; experiment wp071): −1.735
logFC LCK (P06239-3) [2, 4]: −1.774

Cc1ccc(C(=O)Nc2ccc(CN3CCN(CCOCCOCCNC(=O)CNc4cccc5c4C(=O)N(C4CCC(=O)NC4=O)C5=O)CC3)c(C(F)(F)F)c2)cc1C#Cc1cnc2cccnn12 (centres unmarked) [TL13.150]
logFC BLK ([1]; experiment wp081): −1.435
logFC of BLK (P51451) ([1]; Experiment wp081): −1.435
logFC of SRC ([2]; experiment wp081): −0.5331
logFC MAPK14 ([2]; MAPK14, accession Q16539-2, experiment wp081, direction of change down): −0.5025
logFC MAPK14 ([2]; MAPK14 Q16539-2, experiment wp081): −0.5025
logFC [2, 5]: −0.5331

Cc1cc(Nc2ncc(Br)c(Nc3cccc(F)c3C(N)=O)n2)ccc1S(=O)(=O)NCCOCCOCCOCCOCCNc1cccc2c1C(=O)N(C1CCC(=O)NC1=O)C2=O (centres unmarked) [TMX.02.174]
logFC [2, 6]: −1.578
logFC AURKB [2, 6]: −1.578
logFC GSK3B [2, 7]: −0.6472
logFC [2, 8]: −1.666
logFC [2, 9]: −0.4606
logFC CLK1 [2, 9]: −0.4606
logFC MAPK8 (P45983-4) [2, 10]: −0.7761
logFC PRKAA1 (Q13131-2) [2, 10]: −1.622
logFC GSK3B [2, 11]: −0.6472
logFC MAPK8 ([2]; experiment wp146): −0.7761
logFC RPS6KA1 ([2]; experiment wp146): −0.6638
logFC CDK9 (P50750-2) ([2]; experiment wp146): −1.666
logFC CDK16 (Q00536-2) ([2]; experiment wp146): −1.176
logFC PRKAA1 (Q13131-2) ([2]; experiment wp146): −1.622
logFC RPS6KA1 (Q15418-2) ([2]; experiment wp146): −0.6638
logFC NEK1 (Q96PY6-3) ([2]; experiment wp146, direction of change down): −0.3871
logFC NEK1 ([2]; protein NEK1 (Q96PY6-3), experiment wp146, down): −0.3871

NC(=O)c1c(F)cccc1Nc1nc(Nc2ccc(S(=O)(=O)NCCOCCOCCOCCOCCNc3cccc4c3C(=O)N(C3CCC(=O)NC3=O)C4=O)cc2)ncc1Br (centres unmarked) [TMX.02.138]
logFC [2, 6]: −1.832
logFC AURKB [2, 6]: −1.832
logFC GSK3B [2, 7]: −0.604
logFC [2, 8]: −1.889
logFC [2, 9]: −0.4648
logFC CLK1 [2, 9]: −0.4648
logFC MAPK8 (P45983-4) [2, 10]: −0.9813
logFC PRKAA1 (Q13131-2) [2, 10]: −0.7125
logFC GSK3B [2, 11]: −0.604
logFC MAPK8 ([2]; experiment wp146): −0.9813
logFC RPS6KA1 ([2]; experiment wp146): −0.501
logFC CDK9 (P50750-2) ([2]; experiment wp146): −1.889
logFC CDK16 (Q00536-2) ([2]; experiment wp146): −1.434
logFC PRKAA1 (Q13131-2) ([2]; experiment wp146): −0.7125
logFC RPS6KA1 (Q15418-2) ([2]; experiment wp146): −0.501

Cc1ccc(C(=O)Nc2ccc(CN3CCN(CCCOCCOCCOCCNC(=O)COc4cccc5c4C(=O)N(C4CCC(=O)NC4=O)C5=O)CC3)c(C(F)(F)F)c2)cc1C#Cc1cnc2cccnn12 (centres unmarked) [SB1.G.187]
logFC BLK ([1]; experiment wp103): −2.098
logFC BLK ([1]; experiment wp107): −1.916
logFC of BLK ([1]; experiment wp056): −2.021
logFC of BLK (P51451) ([1]; Experiment wp056): −2.021
logFC of BLK (P51451) ([1]; Experiment wp103): −2.098
logFC of BLK (P51451) ([1]; Experiment wp107): −1.916
logFC CDK6 ([3]; CDK6 (Q00534), direction down, experiment wp103): −0.346
logFC of CDK6 (Q00534) ([3]; Experiment wp103, down): −0.346
logFC ABL1 ([2]; experiment wp056): −0.5173
logFC ABL1 ([2]; experiment wp103): −0.754
logFC ABL1 ([2]; experiment wp107): −0.5339
logFC FYN ([2]; Accession P06241-2, experiment wp107): −0.5334
logFC of SRC ([2]; experiment wp056): −0.604
logFC of SRC ([2]; experiment wp103): −0.8282
logFC of SRC ([2]; experiment wp105): −0.5683
logFC of SRC ([2]; experiment wp107): −1.206
logFC MAP3K20 (Q9NYL2-2) ([2]; Experiment wp103): −0.6203
logFC MAP3K20 (Q9NYL2-2) ([2]; Experiment wp107): −0.4387
logFC MAP3K20 (Q9NYL2-2) ([2]; Experiment wp114): −0.7846
logFC of LYN (P07948-2) ([2]; Experiment wp114): −0.4408
logFC ([2]; FER (P16591-3), experiment wp172, direction down): −1.394
logFC of FER ([2]; FER P16591-3, experiment wp172): −1.394
logFC FYN ([2]; FYN P06241-2, experiment wp107): −0.5334
logFC ([2]; GK P32189-3, experiment wp056): −0.4719
logFC LCK [2, 12]: −1.003
logFC LCK [2, 13]: −1.237
logFC LCK [2, 14]: −1.237
logFC ([2]; LYN (P07948-2), experiment wp105): −1.087
logFC ([2]; LYN (P07948-2), experiment wp114): −0.4408
logFC MAPK14 ([2]; MAPK14, accession Q16539-2, experiment wp056, direction of change down): −0.8019
logFC MAPK14 ([2]; MAPK14, accession Q16539-2, experiment wp105, direction of change down): −0.9084
logFC MAPK14 ([2]; MAPK14 Q16539-2, experiment wp056): −0.8019
logFC MAPK14 ([2]; MAPK14 Q16539-2, experiment wp105): −0.9084
logFC PDK3 ([2]; PDK3 (Q15120-2), experiment wp056): −0.4827
logFC ABL1 (P00519-2) ([2]; experiment wp056): −0.5173
logFC PDK3 (Q15120-2) ([2]; experiment wp056): −0.4827
logFC LCK (P06239-3) [2, 12]: −1.003
logFC ABL1 (P00519-2) ([2]; experiment wp103): −0.754
logFC MAP3K20 (Q9NYL2-2) ([2]; experiment wp103): −0.6203
logFC LCK (P06239-3) [2, 13]: −1.237
logFC of LYN (P07948-2) ([2]; experiment wp105): −1.087
logFC ABL1 (P00519-2) ([2]; experiment wp107): −0.5339
logFC MAP3K20 (Q9NYL2-2) ([2]; experiment wp107): −0.4387
logFC LCK (P06239-3) [2, 14]: −1.237
logFC MAP3K20 (Q9NYL2-2) ([2]; experiment wp114): −0.7846

CNC(=O)c1ccccc1Nc1cc(Nc2ccc(N3CCN(CCOCCOCCNC(=O)CNc4cccc5c4C(=O)N(C4CCC(=O)NC4=O)C5=O)CC3)cc2OC)ncc1C(F)(F)F (centres unmarked) [MFH.5.103.1]
logFC RPS6KA1 ([2]; experiment wp076): −1.583
logFC RPS6KA1 (Q15418-2) ([2]; experiment wp076): −1.583
